Assay results published in patent US20020160983A1, “Substituted benzopyranones as telomerase inhibitors” (priority 2001, published 2002).

Target: telomerase enzyme (Homo sapiens, UniProt O14746)
Assay: Flash Plate-based telomerase activity assay
Format: biochemical
Conditions: two hours of incubation at 37°, biotinylated oligo primer, radioactive labeled probe
Description: The telomerase activity of the compounds has been evaluated using a Flash Plate-based assay.
Briefly the assay mixture is constituted of:
telomerase enzyme diluted in a buffer, the composition of which has been selected to maintain the enzyme activity stable along the duration of the assay.
dNTPs, deoxynucleotides 5′-triphosphate.
biotinylated oligo as primer.
increasing concentrations of test compounds/positive control.
After two hours of incubation at 37° degrees the telomeric repeats added by telomerase are evaluated by hybridization in solution with a 3′-radioactive labeled short oligonucleotide probe.
The extent of hybridization is then quantitated by transferring the reaction mixture in a streptavidin-coated flash plate, where the binding between biotin and streptavidin occurs.
The telomerase activity is proportional to the radioactivity measured and the inhibitory activity of the compounds is evaluated as IC50 using the Sigma Plot fit program.
With the above-described method IC50 values of the compounds of the present invention were determined.

telomerase enzyme, sequence (O14746 whole entry): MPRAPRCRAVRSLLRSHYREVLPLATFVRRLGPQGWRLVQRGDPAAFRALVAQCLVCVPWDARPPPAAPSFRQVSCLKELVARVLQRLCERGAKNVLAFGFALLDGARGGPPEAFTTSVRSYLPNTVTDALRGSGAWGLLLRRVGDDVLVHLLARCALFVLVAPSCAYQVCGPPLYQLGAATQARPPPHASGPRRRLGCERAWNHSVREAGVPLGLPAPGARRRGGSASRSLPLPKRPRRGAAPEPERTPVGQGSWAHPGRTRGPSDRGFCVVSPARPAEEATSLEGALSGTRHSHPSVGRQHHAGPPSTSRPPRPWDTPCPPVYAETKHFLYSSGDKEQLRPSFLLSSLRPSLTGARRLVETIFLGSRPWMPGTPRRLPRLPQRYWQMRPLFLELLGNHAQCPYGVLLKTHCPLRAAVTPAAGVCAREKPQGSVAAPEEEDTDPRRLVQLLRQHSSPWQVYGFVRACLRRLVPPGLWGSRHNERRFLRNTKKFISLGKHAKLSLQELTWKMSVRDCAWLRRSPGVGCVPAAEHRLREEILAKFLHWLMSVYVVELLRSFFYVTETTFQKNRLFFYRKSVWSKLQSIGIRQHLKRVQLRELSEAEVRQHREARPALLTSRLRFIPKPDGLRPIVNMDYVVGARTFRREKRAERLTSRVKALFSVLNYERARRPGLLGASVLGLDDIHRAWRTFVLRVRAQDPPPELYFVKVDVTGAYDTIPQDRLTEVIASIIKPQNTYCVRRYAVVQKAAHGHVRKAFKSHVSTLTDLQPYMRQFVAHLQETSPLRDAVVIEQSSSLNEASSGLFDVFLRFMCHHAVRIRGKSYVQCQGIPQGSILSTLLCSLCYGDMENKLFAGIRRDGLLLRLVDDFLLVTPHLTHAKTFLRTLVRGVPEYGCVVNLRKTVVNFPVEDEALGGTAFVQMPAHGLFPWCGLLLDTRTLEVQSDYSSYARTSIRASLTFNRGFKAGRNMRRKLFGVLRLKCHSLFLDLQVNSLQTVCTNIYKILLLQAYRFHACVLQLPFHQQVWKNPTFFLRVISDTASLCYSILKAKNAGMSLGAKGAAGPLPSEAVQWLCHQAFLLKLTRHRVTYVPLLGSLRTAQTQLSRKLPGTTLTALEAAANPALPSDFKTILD

Row | IC50 [µM] | Compound
1 | 0.13 | N#Cc1c(-c2ccc(O)c(O)c2)oc2c(O)c(O)ccc2c1=O [Compound 39, 3-cyano-2-(3,4-dihydroxyphenyl)-7,8-dihydroxy-4H-chromen-4-one]
2 | > 40 | COc1ccc2c(=O)cc(-c3ccc(NC(C)=O)c(NC(C)=O)c3)oc2c1OC [Compound 58, N-[2-(acetylamino)-4-(7,8-dimethoxy-4-oxo-4H-chromen-2-yl)phenyl]acetamide]
3 | 12 | COc1ccc(-c2cc(=O)c3ccc(O)c(O)c3o2)cc1OC [Compound 7, 7,8-dihydroxy-2-(3,4-dimethoxyphenyl)-4H-chromen-4-one]
4 | 5.4 | COc1ccc(-c2cc(=O)c3cc(Cl)c(OC)c(OC)c3o2)cc1OC [Compound 50, 6-chloro-2-(3,4-dimethoxyphenyl)-7,8-dimethoxy-4H-chromen-4-one]
5 | 0.6 | O=c1c(F)c(-c2ccc(O)c(O)c2)oc2c(O)c(O)ccc12 [Compound 41, 3-fluoro-2-(3,4-dihydroxyphenyl)-7,8-dihydroxy-4H-chromen-4-one]
6 | 0.8 | O=c1c(Cl)c(-c2ccc(O)c(O)c2)oc2c(O)c(O)ccc12 [Compound 37, 3-chloro-2-(3,4-dihydroxyphenyl)-7,8-dihydroxy-4H-chromen-4-one]
7 | > 40 | COc1ccc(-c2cc(=O)c3ccc(OC)c(OC)c3o2)cc1OC [Compound 24, 7,8-dimethoxy-2-(3,4-dimethoxyphenyl)-4H-chromen-4-one]
8 | 25.3 | O=c1cc(-c2ccccc2O)oc2c(O)c(O)ccc12 [Compound 4, 7,8-dihydroxy-2-(2-hydroxyphenyl)-4H-chromen-4-one]
9 | 14.3 | O=c1cc(-c2ccc(Cl)c(Cl)c2)oc2c(O)c(O)ccc12 [Compound 46, 2-(3,4-dichlorophenyl) -7,8-dihydroxy-4H-chromen-4-one]
10 | 11.7 | COc1ccc(-c2cc(=O)c3ccc(O)c(O)c3o2)cc1O [Compound 79, 7,8-dihydroxy-2-(3-hydroxy-4-methoxyphenyl)-4H-chromen-4-one]
11 | 7.4 | COc1ccc2c(=O)cc(-c3ccc(N)c(N)c3)oc2c1OC [Compound 51, 2-(3,4-diaminophenyl)-7,8-dimethoxy-4H-chromen-4-one]
12 | 0.34 | O=c1cc(-c2ccc(O)c(O)c2)oc2c(O)c(O)c(Cl)cc12 [Compound 49, 6-chloro-2-(3,4-dihydroxyphenyl)-7,8-dihydroxy-4H-chromen-4-one]
13 | 0.3 | O=c1cc(-c2ccc(O)c(O)c2)oc2c(O)c(O)ccc12 [Compound 3, 2-(3,4-dihydroxyphenyl)-7,8-dihydroxy-4H-chromen-4-one]
14 | 2.2 | COc1ccc2c(=O)cc(-c3ccc4[nH]cnc4c3)oc2c1OC [Compound 61, 2-(1H-benzimidazol-5-yl)-7,8-dimethoxy-4H-chromen-4-one]
15 | 34 | O=c1cc(-c2cccc(O)c2)oc2c(O)c(O)ccc12 [Compound 5, 7,8-dihydroxy-2-(3-hydroxyphenyl)-4H-chromen-4-one]
16 | 7.8 | COc1ccc2c(=O)cc(-c3ccc(O)c(O)c3)oc2c1O [Compound 78, 8-hydroxy-7-methoxy-2-(3,4-dihydroxyphenyl)-4H-chromen-4-one]
17 | > 40 | COc1ccc2c(=O)cc(-c3ccc4[nH]nnc4c3)oc2c1OC [Compound 65, 2-(1H-1,2,3-benzotriazol-5-yl)-7,8-dimethoxy-4H-chromen-4-one]
18 | 30 | O=c1cc(-c2cccc(Cl)c2)oc2c(O)c(O)ccc12 [Compound 45, 2-(3-chlorophenyl)-7,8-dihydroxy-4H-chromen-4-one]
19 | 19 | COc1ccc2c(=O)cc(-c3ccc4[nH]c(=O)[nH]c4c3)oc2c1OC [Compound 67, 5-(7,8-dimethoxy-4-oxo-4H-chromen-2-yl)-1,3-dihydro-2H-benzimidazol-2-one]
20 | > 40 | COc1ccc(-c2oc3c(OC)c(OC)ccc3c(=O)c2Cl)cc1OC [Compound 38, 3-chloro-2-(3,4-dimethoxyphenyl)-7,8-dimethoxy-4H-chromen-4-one]
21 | 3 | O=c1cc(-c2ccc(O)cc2)oc2c(O)c(O)ccc12 [Compound 2, 7,8-dihydroxy-2-(4-hydroxyphenyl)-4H-chromen-4-one]
22 | 33 | O=c1cc(-c2ccccc2)oc2c(O)c(O)ccc12 [Compound 1, 7,8-dihydroxy-2-phenyl-4H-chromen-4-one]
23 | 3.6 | Nc1ccc(-c2cc(=O)c3ccc(O)c(O)c3o2)cc1N [Compound 52, 2-(3,4-diaminophenyl)-7,8-dihydroxy-4H-chromen-4-one]
24 | 8.7 | COc1ccc(-c2cc(=O)c3ccc(OC)c(OC)c3o2)cc1O [Compound 87, 7,8-dimethoxy-2-(3-hydroxy-4-methoxyphenyl)-4H-chromen-4-one]

Row | Compound | IC50 [µM]
25 | CC(=O)Oc1ccc(-c2cc(=O)c3ccc(OC(C)=O)c(OC(C)=O)c3o2)cc1OC(C)=O [Compound 14, 2-(3,4-diacetoxyphenyl)-7,8-diacetoxy—4H-chromen-4-one] | 15
26 | CC(=O)Oc1ccc(-c2cc(=O)c3ccc(O)c(O)c3o2)cc1OC(C)=O [Compound 90, 2-(3,4-diacetoxyphenyl)-7,8-dihydroxy-4H-chromen-4-one] | 0.64
